Reference: ChEMBL document CHEMBL6177983, “PSMA-Guided PROTAC Degraders for Tumor-Specific Protein Degradation in Prostate Cancer” (J Med Chem, 2025)
Calls of active or inactive are those of the source. No cut-off for these calls is given here.

How the values were obtained:
[1] = target: T1, von Hippel-Lindau disease tumor suppressor/Bromodomain-containing protein 4 (Homo sapiens) (UniProt O60885+P40337); experiment: PROTAC activity at BRD4/VHL in human VCaP cells expressing PSMA assessed as induction of BRD4 degradation incubated for 24 hrs by Western blotting analysis; assay type: cell-based; details: dose <= 100.0 nM
[2] = target: T1, von Hippel-Lindau disease tumor suppressor/Bromodomain-containing protein 4 (Homo sapiens); experiment: PROTAC activity at BRD4/VHL in human LNCaP cells expressing PSMA assessed as induction of BRD4 degradation incubated for 24 hrs by Western blotting analysis; assay type: cell-based; details: dose <= 100.0 nM
[3] = target: T1, von Hippel-Lindau disease tumor suppressor/Bromodomain-containing protein 4 (Homo sapiens); experiment: PROTAC activity at BRD4/VHL in human 22Rv1 cells expressing PSMA assessed as induction of BRD4 degradation incubated for 24 hrs by Western blotting analysis; assay type: cell-based; details: dose <= 100.0 nM
[4] = target: T1, von Hippel-Lindau disease tumor suppressor/Bromodomain-containing protein 4 (Homo sapiens); experiment: PROTAC activity at BRD4/VHL in HEK293 cells assessed as induction of BRD4 degradation up to 100 nM incubated for 24 hrs by Western blotting analysis; assay type: cell-based
[5] = target: T1, von Hippel-Lindau disease tumor suppressor/Bromodomain-containing protein 4 (Homo sapiens); experiment: PROTAC activity at BRD4/VHL in human DU-145 cells assessed as induction of BRD4 degradation up to 100 nM incubated for 24 hrs by Western blotting analysis; assay type: cell-based
[6] = target: T1, von Hippel-Lindau disease tumor suppressor/Bromodomain-containing protein 4 (Homo sapiens); experiment: PROTAC activity at BRD4/VHL in human J82 cells assessed as induction of BRD4 degradation up to 100 nM incubated for 24 hrs by Western blotting analysis; assay type: cell-based
HEK-293T = experiment: Cytotoxicity against HEK293T cells assessed as cell viability incubated for 72 hrs by CCK-8 assay; assay type: toxicity, cell-based; details: human
DU-145 = experiment: Cytotoxicity against human DU-145 cells assessed as cell viability incubated for 72 hrs by CCK-8 assay; assay type: functional, cell-based
J82 = experiment: Cytotoxicity against human J82 cells assessed as cell viability incubated for 72 hrs by CCK-8 assay; assay type: functional, cell-based
[7] = target: T1, von Hippel-Lindau disease tumor suppressor/Bromodomain-containing protein 4 (Homo sapiens); experiment: PROTAC activity at BRD4/VHL PSMA knockdown in human LNCaP cells assessed as induction of BRD4 degradation at 3 nM incubated for 12 hrs by Western blotting analysis; assay type: cell-based
[8] = target: T1, von Hippel-Lindau disease tumor suppressor/Bromodomain-containing protein 4 (Homo sapiens); experiment: PROTAC activity at BRD4/VHL in human LNCaP cells assessed as induction of BRD4 degradation at 10 nM incubated for 8 hrs in presence of VH032 by Western blotting analysis; assay type: cell-based
[9] = target: T1, von Hippel-Lindau disease tumor suppressor/Bromodomain-containing protein 4 (Homo sapiens); experiment: PROTAC activity at BRD4/VHL in human LNCaP cells assessed as induction of BRD4 degradation at 10 nM incubated for 8 hrs in presence of MLN4924 by Western blotting analysis; assay type: cell-based
[10] = target: T1, von Hippel-Lindau disease tumor suppressor/Bromodomain-containing protein 4 (Homo sapiens); experiment: PROTAC activity at BRD4/VHL in human LNCaP cells assessed as induction of BRD4 degradation at 10 nM incubated for 8 hrs in presence of MG132 by Western blotting analysis; assay type: cell-based
[11] = target: T1, von Hippel-Lindau disease tumor suppressor/Bromodomain-containing protein 4 (Homo sapiens); experiment: PROTAC activity at BRD4/VHL in human LNCaP cells assessed as induction of BRD4 degradation at 3 nM incubated for 24 hrs in presence of filipin by Western blotting analysis; assay type: cell-based
[12] = Half life in BALB/c mouse at 0.14 mmol/L, iv; assay type: ADME; details: in vivo
[13] = Drug concentration in male BALB/c mouse plasma at 0.14 mmol/L, iv; assay type: ADME, cell-free
[14] = Drug concentration in male BALB/c mouse Tumor at 0.14 mmol/L, iv; assay type: ADME, tissue-based, Neoplasm; details: in vivo
LNCaP = experiment: Antitumor activity against human LNCaP cells xenografted in BALB/c mouse assessed as tumor growth inhibition at 0.47 mmol/L, iv administered every day for 21 days; assay type: functional; details: 504 h, time 21 day, read-out: TGI
[15] = Toxicity in male BALB/c mouse assessed as body weight loss at 0.47 mmol/L, iv administered every day for 21 days; assay type: organism-based; details: in vivo, 504 h, time 21 day
[16] = Toxicity in male BALB/c mouse assessed as effect on tumor weight at 0.47 mmol/L, iv administered every day for 21 days; assay type: organism-based; details: in vivo, 504 h, time 21 day
[17] = Toxicity in male BALB/c mouse assessed as effect on heart weight at 0.47 mmol/L, iv administered every day for 21 days; assay type: organism-based; details: in vivo, 504 h, time 21 day
[18] = Toxicity in male BALB/c mouse assessed as effect on liver weight at 0.47 mmol/L, iv administered every day for 21 days; assay type: organism-based; details: in vivo, 504 h, time 21 day
[19] = Toxicity in male BALB/c mouse assessed as effect on spleen weight at 0.47 mmol/L, iv administered every day for 21 days; assay type: organism-based; details: in vivo, 504 h, time 21 day
[20] = Toxicity in male BALB/c mouse assessed as effect on lung weight at 0.47 mmol/L, iv administered every day for 21 days; assay type: organism-based; details: in vivo, 504 h, time 21 day
[21] = Toxicity in male BALB/c mouse assessed as effect on kidney weight at 0.47 mmol/L, iv administered every day for 21 days; assay type: organism-based; details: in vivo, 504 h, time 21 day

T1 sequence (P40337 whole entry, looked up, other chains not shown): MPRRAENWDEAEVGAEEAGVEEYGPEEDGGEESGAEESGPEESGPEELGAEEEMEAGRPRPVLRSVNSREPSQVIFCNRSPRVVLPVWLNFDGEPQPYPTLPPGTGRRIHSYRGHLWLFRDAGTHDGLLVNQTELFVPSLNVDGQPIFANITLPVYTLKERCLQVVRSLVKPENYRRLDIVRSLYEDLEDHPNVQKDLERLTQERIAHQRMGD

Activity [1]: Dose-dependent-effect
Activity [2]: Dose-dependent-effect
Activity [3]: Dose-dependent-effect
Activity [4]: inactive
Activity [5]: inactive
Activity [6]: inactive
Activity [7]: Active
Activity [8]: Active
Activity [9]: Active
Activity [10]: Active
Activity [11]: Active
half-life [12]: 4.19 h
Cp [13]: Active
Drug uptake [14]: Active
SMILES: Cc1ncsc1-c1ccc([C@H](C)NC(=O)[C@@H]2C[C@@H](OC(=O)CCCc3cn(CCCNC(=O)[C@H](Cc4ccc(O)cc4)NC(=O)[C@H](Cc4ccccc4)NC(=O)CCC(=O)NCCCCCC(=O)N(CCCC[C@H](NC(=O)N[C@@H](CCC(=O)O)C(=O)O)C(=O)O)Cc4cccc(Cl)c4)nn3)CN2C(=O)[C@@H](NC(=O)COCCCOCCNC(=O)C[C@@H]2N=C(c3ccc(Cl)cc3)c3c(sc(C)c3C)-n3c(C)nnc32)C(C)(C)C)cc1
Activity (HEK-293T): Non-toxic
Activity (DU-145): inactive
Activity (J82): inactive
inhibition in vivo at 470 µM (LNCaP): 88.6%
Activity [15]: Non-toxic
Activity [16]: Non-toxic
Activity [17]: Non-toxic
Activity [18]: Non-toxic
Activity [19]: Non-toxic
Activity [20]: Non-toxic
Activity [21]: Non-toxic
